Reference: patent US20130225508A1, “PEPTIDE CAPABLE OF BINDING TO IMMUNOGLOBULIN” (priority 2010, published 2013)

Test system: adjuvant-induced arthritis
Experiment: Adjuvant arthritis rat model
Format: in vivo, Lewis/CrlCrlj rats
Parameters: key to Redness scores (left hind-limb) / Redness scores (right hind-limb): 0 = no redness, 4 = severe redness; key to Scores of swelling in the instep (left hind-limb) / Scores of swelling in the instep (right hind-limb): 0 = no swelling, 4 = severe swelling; key to Scores of swelling in knuckle joints (left hind-limb) / Scores of swelling in knuckle joints (right hind-limb): 0 = no swelling, 4 = swelling of all the digits
Text: Male Lewis/CrlCrlj (SPF) rats were used to investigate the arthritis suppressing effect of a peptide of the present invention on adjuvant-induced arthritis. Forty-five rats were purchased from Charles River Laboratories Japan, Inc., and fed normal chow and allowed to acclimate for 7 days before used (the range of body weights was from 193.3 to 218.3 g at the beginning of use).
In an agate motor, dead tubercle bacilli (Mycobacterium butyricum; Lot No. 0260570, Difco) were pulverized. Then, liquid paraffin was added in small amounts to spread the pulverized bacilli well, so as to allow them to be emulsified at 1.0 mg/mL. The resultant emulsion was used after verification to ensure that the pulverized bacilli had been allowed to be finely emulsified, using an NM MICRONIZER (Nippon Seiki Co., Ltd.).
A right hind-limb of the respective rats was exposed, and 100 μL of the emulsion was intradermally injected once into a footpad of the right hind-limb using a 25G-needle attached syringe, to cause arthritis (day 0).
Each of the groups was comprised of 5 animals.
Arthritis was evaluated only for the hind-limbs, based on the criteria described below:
Score 0: no swelling Score 1: swelling of not more than two digits Score 2: swelling of three digits Score 3: swelling of four digits Score 4: swelling of all the digits
Score 0: no swelling Score 1: mild swelling Score 2: modest swelling Score 3: rather severe swelling Score 4: severe swelling
Score 0: no redness Score 1: mild redness Score 2: modest redness Score 3: rather severe redness Score 4: severe redness (iii) Measurement of Foot Volumes of Left And Right Hind-Limbs
Measurement was performed using a plethysmometer (UNICOM TK105). The increasing rate foot volume (percentage of paw swelling, paw swelling %) was calculated by the following formula:
Percent paw swelling (%)=[(Vt−Vo)/Vo]×100
In addition, in these examinations, the percent change of edema relative to day 10 post-adjuvant was calculated, in order to assess the effect of treatment with the test substances.
Data are expressed by mean±standard error. Since the uniformity of variance was not verified in testing between the negative and the positive control groups, testing for significant difference was performed by Aspin-Welch t-test. Since the uniformity of variance was not verified in testing for significant differences of the respective test-substance administered groups relative to the positive control group, assessment was performed by Dunnett's multiple comparison test after Kruskal-Wallis testing, using non-parametric procedures. Differences were considered to be statistically significant at p values of less than 0.05.

[1] = Day 0 post-adjuvant, 0.15 mg/kg oral from day 10
[2] = Day 0 post-adjuvant, 0.15 mg/kg oral, pre-administered group
[3] = Day 3 post-adjuvant, 0.15 mg/kg oral from day 10
[4] = Day 3 post-adjuvant, 0.15 mg/kg oral, pre-administered group
[5] = Day 7 post-adjuvant, 0.15 mg/kg oral from day 10
[6] = Day 7 post-adjuvant, 0.15 mg/kg oral, pre-administered group
[7] = Day 10 post-adjuvant, 0.15 mg/kg oral from day 10
[8] = Day 10 post-adjuvant, 0.15 mg/kg oral, pre-administered group
[9] = Day 14 post-adjuvant, 0.15 mg/kg oral from day 10
[10] = Day 14 post-adjuvant, 0.15 mg/kg oral, pre-administered group
[11] = Day 17 post-adjuvant, 0.15 mg/kg oral from day 10
[12] = Day 17 post-adjuvant, 0.15 mg/kg oral, pre-administered group
[13] = Day 21 post-adjuvant, 0.15 mg/kg oral from day 10
[14] = Day 21 post-adjuvant, 0.15 mg/kg oral, pre-administered group

CN(Cc1cnc2nc(N)nc(N)c2n1)c1ccc(C(=O)N[C@@H](CCC(=O)O)C(=O)O)cc1 [Methotrexate]
Redness scores (left hind-limb) [1]: 0.0 ± 0.0 | Redness scores (right hind-limb) [1]: 0.0 ± 0.0 | Scores of swelling in knuckle joints (left hind-limb) [1]: 0.0 ± 0.0 | Scores of swelling in knuckle joints (right hind-limb) [1]: 0.0 ± 0.0 | Scores of swelling in the instep (left hind-limb) [1]: 0.0 ± 0.0 | Scores of swelling in the instep (right hind-limb) [1]: 0.0 ± 0.0 | Total scores (left hind-limb) [1]: 0.0 ± 0.0 | Total scores (right hind-limb) [1]: 0.0 ± 0.0 | Redness scores (left hind-limb) [2]: 0.0 ± 0.0 | Redness scores (right hind-limb) [2]: 0.0 ± 0.0 | Scores of swelling in knuckle joints (left hind-limb) [2]: 0.0 ± 0.0 | Scores of swelling in knuckle joints (right hind-limb) [2]: 0.0 ± 0.0 | Scores of swelling in the instep (left hind-limb) [2]: 0.0 ± 0.0 | Scores of swelling in the instep (right hind-limb) [2]: 0.0 ± 0.0 | Total scores (left hind-limb) [2]: 0.0 ± 0.0 | Total scores (right hind-limb) [2]: 0.0 ± 0.0 | Redness scores (left hind-limb) [3]: 0.0 ± 0.0 | Redness scores (right hind-limb) [3]: 0.0 ± 0.0 | Scores of swelling in knuckle joints (left hind-limb) [3]: 0.0 ± 0.0 | Scores of swelling in knuckle joints (right hind-limb) [3]: 0.0 ± 0.0 | Scores of swelling in the instep (left hind-limb) [3]: 0.0 ± 0.0 | Scores of swelling in the instep (right hind-limb) [3]: 0.0 ± 0.0 | Total scores (left hind-limb) [3]: 0.0 ± 0.0 | Total scores (right hind-limb) [3]: 0.0 ± 0.0 | Redness scores (left hind-limb) [4]: 0.0 ± 0.0 | Redness scores (right hind-limb) [4]: 0.0 ± 0.0 | Scores of swelling in knuckle joints (left hind-limb) [4]: 0.0 ± 0.0 | Scores of swelling in knuckle joints (right hind-limb) [4]: 0.0 ± 0.0 | Scores of swelling in the instep (left hind-limb) [4]: 0.0 ± 0.0 | Scores of swelling in the instep (right hind-limb) [4]: 0.0 ± 0.0 | Total scores (left hind-limb) [4]: 0.0 ± 0.0 | Total scores (right hind-limb) [4]: 0.0 ± 0.0 | Redness scores (left hind-limb) [5]: 0.0 ± 0.0 | Redness scores (right hind-limb) [5]: 0.4 ± 0.2 | Scores of swelling in knuckle joints (left hind-limb) [5]: 0.4 ± 0.2 | Scores of swelling in knuckle joints (right hind-limb) [5]: 0.6 ± 0.2 | Scores of swelling in the instep (left hind-limb) [5]: 0.0 ± 0.0 | Scores of swelling in the instep (right hind-limb) [5]: 1.2 ± 0.2 | Total scores (left hind-limb) [5]: 0.4 ± 0.5 | Total scores (right hind-limb) [5]: 2.2 ± 0.8 | Redness scores (left hind-limb) [6]: 0.0 ± 0.0 | Redness scores (right hind-limb) [6]: 0.2 ± 0.2 | Scores of swelling in knuckle joints (left hind-limb) [6]: 0.0 ± 0.0 | Scores of swelling in knuckle joints (right hind-limb) [6]: 0.4 ± 0.2 | Scores of swelling in the instep (left hind-limb) [6]: 0.0 ± 0.0 | Scores of swelling in the instep (right hind-limb) [6]: 0.0 ± 0.0 | Total scores (left hind-limb) [6]: 0.0 ± 0.0 | Total scores (right hind-limb) [6]: 0.6 ± 0.4 | Redness scores (left hind-limb) [7]: 0.4 ± 0.2 | Redness scores (right hind-limb) [7]: 1.4 ± 0.4 | Scores of swelling in knuckle joints (left hind-limb) [7]: 0.6 ± 0.2 | Scores of swelling in knuckle joints (right hind-limb) [7]: 1.6 ± 0.4 | Scores of swelling in the instep (left hind-limb) [7]: 0.6 ± 0.2 | Scores of swelling in the instep (right hind-limb) [7]: 1.4 ± 0.4 | Total scores (left hind-limb) [7]: 1.6 ± 0.5 | Total scores (right hind-limb) [7]: 4.4 ± 1.5 | Redness scores (left hind-limb) [8]: 0.0 ± 0.0 | Redness scores (right hind-limb) [8]: 0.0 ± 0.0 | Scores of swelling in knuckle joints (left hind-limb) [8]: 0.2 ± 0.2 | Scores of swelling in knuckle joints (right hind-limb) [8]: 0.2 ± 0.2 | Scores of swelling in the instep (left hind-limb) [8]: 0.0 ± 0.0 | Scores of swelling in the instep (right hind-limb) [8]: 0.4 ± 0.2 | Total scores (left hind-limb) [8]: 0.2 ± 0.2 | Total scores (right hind-limb) [8]: 0.6 ± 0.4 | Redness scores (left hind-limb) [9]: 0.2 ± 0.2 | Redness scores (right hind-limb) [9]: 1.0 ± 0.3 | Scores of swelling in knuckle joints (left hind-limb) [9]: 0.8 ± 0.2 | Scores of swelling in knuckle joints (right hind-limb) [9]: 1.2 ± 0.2 | Scores of swelling in the instep (left hind-limb) [9]: 0.2 ± 0.2 | Scores of swelling in the instep (right hind-limb) [9]: 1.4 ± 0.4 | Total scores (left hind-limb) [9]: 1.2 ± 0.6 | Total scores (right hind-limb) [9]: 3.6 ± 1.1 | Redness scores (left hind-limb) [10]: 0.0 ± 0.0 | Redness scores (right hind-limb) [10]: 0.2 ± 0.2 | Scores of swelling in knuckle joints (left hind-limb) [10]: 0.4 ± 0.2 | Scores of swelling in knuckle joints (right hind-limb) [10]: 0.8 ± 0.2 | Scores of swelling in the instep (left hind-limb) [10]: 0.0 ± 0.0 | Scores of swelling in the instep (right hind-limb) [10]: 0.8 ± 0.2 | Total scores (left hind-limb) [10]: 0.4 ± 0.2 | Total scores (right hind-limb) [10]: 1.8 ± 0.2 | Redness scores (left hind-limb) [11]: 0.6 ± 0.4 | Redness scores (right hind-limb) [11]: 1.2 ± 0.2 | Scores of swelling in knuckle joints (left hind-limb) [11]: 0.4 ± 0.2 | Scores of swelling in knuckle joints (right hind-limb) [11]: 0.6 ± 0.2 | Scores of swelling in the instep (left hind-limb) [11]: 0.8 ± 0.6 | Scores of swelling in the instep (right hind-limb) [11]: 2.0 ± 0.4 | Total scores (left hind-limb) [11]: 1.8 ± 1.4 | Total scores (right hind-limb) [11]: 3.8 ± 0.9 | Redness scores (left hind-limb) [12]: 0.4 ± 0.4 | Redness scores (right hind-limb) [12]: 0.8 ± 0.4 | Scores of swelling in knuckle joints (left hind-limb) [12]: 0.6 ± 0.2 | Scores of swelling in knuckle joints (right hind-limb) [12]: 1.0 ± 0.3 | Scores of swelling in the instep (left hind-limb) [12]: 0.4 ± 0.2 | Scores of swelling in the instep (right hind-limb) [12]: 1.4 ± 0.2 | Total scores (left hind-limb) [12]: 1.4 ± 0.7 | Total scores (right hind-limb) [12]: 3.2 ± 0.8 | Redness scores (left hind-limb) [13]: 0.6 ± 0.6 | Redness scores (right hind-limb) [13]: 1.2 ± 0.5 | Scores of swelling in knuckle joints (left hind-limb) [13]: 0.6 ± 0.6 | Scores of swelling in knuckle joints (right hind-limb) [13]: 0.8 ± 0.6 | Scores of swelling in the instep (left hind-limb) [13]: 0.6 ± 0.6 | Scores of swelling in the instep (right hind-limb) [13]: 2.2 ± 0.6 | Total scores (left hind-limb) [13]: 1.8 ± 2.3 | Total scores (right hind-limb) [13]: 4.2 ± 2.0 | Redness scores (left hind-limb) [14]: 0.2 ± 0.2 | Redness scores (right hind-limb) [14]: 0.8 ± 0.2 | Scores of swelling in knuckle joints (left hind-limb) [14]: 0.4 ± 0.2 | Scores of swelling in knuckle joints (right hind-limb) [14]: 0.8 ± 0.2 | Scores of swelling in the instep (left hind-limb) [14]: 0.2 ± 0.2 | Scores of swelling in the instep (right hind-limb) [14]: 1.2 ± 0.4 | Total scores (left hind-limb) [14]: 0.8 ± 0.6 | Total scores (right hind-limb) [14]: 2.8 ± 0.6
